The source made the active and inactive calls. The rule behind the calls is not given here.
Experiments:
[1] = test system: Plasmodium berghei; test: Antimalarial activity against liver stage transgenic Plasmodium berghei ANKA sporozoites transfected with GFP-Luc infected in BALB/c mouse assessed as reduction in liver stage parasite infection at 30 mg/kg, iv measured for 1 to 4 days post-administration by IVIS spectrum in vivo imaging analysis; assay type: functional, organism-based; settings: time 1-4 day
[2] = test system: Plasmodium falciparum; test: Antimalarial activity against asexual blood stage quinine-resistant Plasmodium falcipuram C2A assessed as parasite growth inhibition incubated for 72 hrs by SYBR Green I staining based fluorescence analysis; assay type: functional, organism-based
[3] = test system: Plasmodium falciparum; test: Antimalarial activity against asexual blood stage wild-type Plasmodium falciparum 3D7 assessed as parasite growth inhibition incubated for 72 hrs by SYBR Green I staining based fluorescence analysis; assay type: functional, organism-based; settings: 3D7, 72 h
[4] = test system: Plasmodium falciparum; test: Antimalarial activity against asexual blood stage chloroquine-resistant Plasmodium falciparum Dd2 assessed as parasite growth inhibition incubated for 72 hrs by SYBR Green I staining based fluorescence analysis; assay type: functional, organism-based; settings: Dd2, 72 h
[5] = Cytotoxicity against human HepG2 cells incubated for 72 hrs by CCK-8 assay
[6] = Cytotoxicity against HEK293T cells incubated for 72 hrs by CCK-8 assay; settings: human
[7] = Metabolic stability in mouse liver microsomes assessed as half life at […] incubated for 45 mins in presence of NADPH by LC/MS analysis; assay type: ADME, Microsome; settings: microsomes, 0.75 h, 10000 µM
[8] = test system: Plasmodium falciparum; test: Antimalarial activity against asexual blood stage chloroquine-resistant Plasmodium falcipuram GB4 assessed as parasite growth inhibition incubated for 72 hrs by SYBR Green I staining based fluorescence analysis; assay type: functional, organism-based; settings: GB4, 72 h
[9] = Toxicity in BALB/c mouse infected with blood stage Plasmodium yoelii assessed as animal death at 60 mg/kg, ip qd for 5 days measured from day 2 post compound treatment; assay type: organism-based; settings: in vivo, 120 h, time 5 day
[10] = Toxicity in BALB/c mouse infected with blood stage Plasmodium yoelii assessed as animal death at 60 mg/kg, ip qd for 5 days and measured on day 28; assay type: organism-based; settings: in vivo, 672 h, time 28 day
[11] = Toxicity in BALB/c mouse infected with blood stage Plasmodium yoelii assessed as animal death at 30 mg/kg, ip qd for 5 days and measured upto 60 days; assay type: organism-based; settings: in vivo, 1440 h, time 60 day
[12] = test system: Plasmodium yoelii; test: Antimalarial activity against blood stage Plasmodium yoelii infected in BALB/c mouse assessed as parasite recrudescence by measuring parasitemia at 60 mg/kg, ip qd for 5 days and measured on 11 to 26 days; assay type: functional; settings: time 11-26 day
[13] = test system: Plasmodium falciparum; test: Antimalarial activity against blood stage asynchronous Plasmodium falcipuram 3D7 assessed as parasite growth inhibition by measuring parasitemia at 10 to 100 nM incubated for 12 to 24 hrs by flow cytometry; assay type: functional, organism-based; settings: dose 10-100 nM, time 12-24 hrs
[14] = test system: Plasmodium falciparum; test: Antimalarial activity against blood stage asynchronous Plasmodium falcipuram 3D7 assessed as parasite growth inhibition by measuring parasitemia incubated for 6 to 12 hrs followed by compound washout and replacement with fresh medium without compounds and measured after 4 days by flow cytometry; assay type: functional, organism-based; settings: dose 10-100 nM, time 6-12 hrs
[15] = test system: Plasmodium falciparum; test: Antimalarial activity against blood stage asynchronous Plasmodium falcipuram 3D7 assessed as suppression of parasite reproduction by measuring parasitemia at 10 nM incubated for 24 hrs followed by compound washout and replacement with fresh medium without compounds and measured after 4 days by flow cytometry; assay type: functional
[16] = test system: Plasmodium falciparum; test: Antimalarial activity against synchronized Plasmodium falcipuram 3D7 infected in human RBC assessed as ring stage parasite killing at 40 nM treated […] and incubated for 12 hrs followed by compound washout and replacement with fresh medium without compounds and measured at 50 hrs post infection by Geimsa staining based microscopy; assay type: functional, organism-based
[17] = test system: Plasmodium falciparum; test: (§1) Antimalarial activity against synchronized Plasmodium falcipuram 3D7 infected in human RBC assessed as irreversible inhibition of parasite growth at ring stage at 40 nM treated at 5 to 17 hpi incubated for 12 hrs followed by compound washout and replacement with fresh medium without compounds and measured after 4 days by flow cytometry; assay type: functional, organism-based
[18] = test system: Plasmodium falciparum; test: as §1, with “schizont” for “ring”, “29” for “at 5”, “41” for “17”; assay type: functional, organism-based
[19] = test system: Plasmodium falciparum; test: Inhibition of Plasmodium falcipuram HDAC assessed as effect on parasite histone deacetylation level at 5 to 20 nM incubated for 4 hrs by Western blot analysis; settings: dose 5-20 nM
[20] = In vivo inhibition of C-terminal glmS fused HDAC1 in Plasmodium falcipuram 3D7 assessed as inhibition of parasite growth incubated for 4 hrs followed by compound washout and replacement with fresh medium with compounds measured after 68 hrs by SYBR Green I staining based fluorescence analysis; assay type: functional, organism-based, Plasmodium falciparum
[21] = In vivo inhibition of C-terminal TY1 fused HDAC1 in Plasmodium falcipuram 3D7 assessed as inhibition of parasite growth incubated for 4 hrs followed by compound washout and replacement with fresh medium with compounds measured after 68 hrs by SYBR Green I staining based fluorescence analysis; assay type: functional, organism-based, Plasmodium falciparum
[22] = test system: Plasmodium falciparum; test: In vivo inhibition of C-terminal glmS fused HDAC2 in Plasmodium falcipuram 3D7 assessed as inhibition of parasite growth incubated for 4 hrs followed by compound washout and replacement with fresh medium with compounds measured after 68 hrs by SYBR Green I staining based fluorescence analysis; assay type: functional, organism-based
[23] = test system: Plasmodium falciparum; test: In vivo inhibition of C-terminal TY1 fused HDAC2 in Plasmodium falcipuram 3D7 assessed as inhibition of parasite growth incubated for 4 hrs followed by compound washout and replacement with fresh medium with compounds measured after 68 hrs by SYBR Green I staining based fluorescence analysis; assay type: functional, organism-based
[24] = test system: Plasmodium falciparum; test: Inhibition of Plasmodium falcipuram recombinant HDAC1 using HDAC-Glo I/II as substrate at 50 to 800 nM preincubated for 90 mins by luminescence based microplate reader analysis; settings: dose 50-800 nM
[25] = test system: Plasmodium falciparum; test: In vivo inhibition of C-terminal glmS fused HDAC1 in Plasmodium falcipuram 3D7 assessed as inhibition of parasite growth by measuring downregulation of RBC invasion-related genes expression level by RNA-seq analysis; assay type: functional, organism-based
[26] = test system: Plasmodium falciparum; test: In vivo inhibition of C-terminal TY1 fused HDAC1 in Plasmodium falcipuram 3D7 assessed as inhibition of parasite growth by measuring downregulation of RBC invasion-related genes expression level by RNA-seq analysis; assay type: functional, organism-based
[27] = Cmax in BALB/c mouse at 5 mg/kg, ip measured upto 24 hrs by LC-MS/MS analysis; assay type: ADME, organism-based; set-up: route intraperitoneal, dose 5 mg/kg, time <=24; settings: in vivo
[28] = Tmax in BALB/c mouse at 5 mg/kg, ip measured after upto 24 hrs by LC-MS/MS analysis; assay type: ADME, organism-based; settings: in vivo
[29] = Apparent clearance in BALB/c mouse at 5 mg/kg, ip measured after upto 24 hrs by LC-MS/MS analysis; assay type: ADME, organism-based; settings: in vivo, read-out: CLz/F (converted)
[30] = Apparent volume of distribution in BALB/c mouse at 5 mg/kg, ip measured after upto 24 hrs by LC-MS/MS analysis; assay type: ADME, organism-based; settings: in vivo, read-out: Vz/F

**Q.** Which results are given for `Cn1cc(CNCC2CCN(c3ncc(C(=O)NO)cn3)CC2)c2ccccc21` [QUISINOSTAT]?
**A.** Activity [1]: inactive; IC50 [2]: 2.52 nM; IC50 [3]: 4.01 nM; IC50 [4]: 7.09 nM; IC50 at 72 h [5]: 30 nM; IC50 at 72 h [6]: 60 nM; t1/2 [7]: 629.7 min; IC50 [8]: 1.75 nM; Activity [9]: Toxic; Activity [10]: Toxic; Activity [11]: Toxic; Activity [12]: 0.05%; Activity [13]: Active; Activity [14]: Dose dependent effect; Activity [15]: 100%; Activity [16]: Active; Activity [17]: Active; Activity [18]: Active; Activity [19]: Active; IC50 [20]: 5.59 nM; IC50 [21]: 19.1 nM; inhibition [22]: Active; inhibition [23]: Active; inhibition [24]: Active; inhibition [25]: Active; inhibition [26]: Active; Cmax [27]: 89 ng/mL; Tmax [28]: 4.8 min; CL/F [29]: 462 mL/min/kg; Vd/F [30]: 245 L/kg

From ChEMBL document CHEMBL5046276 (J Med Chem, 2022)
